Legend:
[1] = system: Candida glabrata ATCC 2001; assay: microbe, parasite or virus in culture; format: cell-based; details: RPMI broth microdilution, 35° C., 48 hours, visual
Description: (§1) All yeasts Candida albicans (Olomouc) and ATCC MYA-2876, Candida glabrata ATCC 2001 and DSY 565, Candida dubliniensis ATCC MYA-646, Candida krusei ATCC 6258 and Candida tropicalis ATCC 750 were sub-cultured from sterile vials onto Sabouraud dextrose agar, which was composed of 40 g dextrose (Penta, Czech Republic), 10 g peptone (OXOID, Great Britain) and 17 g agar (OXOID), dissolved in 1 l of distilled water, and cultivated for 24 hours at 35° C.
(§2) All strains were stored in a way that minimizes the possibility of mutation. Candida spp. were grown overnight in liquid YPD medium which is composed of 10 g yeast extract (DIFCO, USA), 20 g peptone (OXOID), and 20 g dextrose (Penta) dissolved in 1 l distilled water. Then the overnight culture was cryogenically preserved by suspending in 50% glycerol solution (1:1) in small vials and stored at −80° C.
(§3) The inoculum was prepared by picking five colonies from 24-hour-old cultures of Candida spp. The colonies were suspended in 1 ml of sterile saline solution and vortexed for 15 seconds. Optical density of the suspension was adjusted spectrophotometrically by adding sterile saline solution to produce optical density of 0.18 at 600 nm. A working suspension was made by a 1:50 dilution followed by a 1:20 dilution of the stock suspension with RPMI 1640 broth medium which was composed of L-glutamine without NaHCO3 (BioSera, France), and with 0.165 mol.l^−1 MOPS (Duchefa, Netherland)—further as RPMI broth medium.
(§4) The broth microdilution test was performed by using sterile, disposable, multi-well microdilution plates (96-well). The peptides in the concentrations 0.625-160 μmol.l^−1 were pipetted into the wells in 100 μl volumes. Each well of the plate was inoculated with 100 μl of the diluted inoculum suspension. Final yeast density in each well was 5×10^2 up to 2.5×10^3 CFU/ml. The microdilution plates were incubated without shaking at 35° C. and observed for the presence or absence of visible growth for 48 hours.
(§5) Drug-free medium without inoculation served as negative control; the growth positive control contained inoculated drug-free medium. Amphotericin B was used as control drug to ensure quality of Candida strains.
(§6) The minimal inhibition concentrations (MICs) were visually determined 48 hours after inoculation. The MIC values were defined as the lowest concentration in which no observable growth is noticeable.
(§7) All yeast isolates were obtained from the Institute of Physiology of the Academy of Sciences of the Czech Republic. Candida albicans (Olomouc) came from the Faculty of Medicine and Dentistry, Palacý University Olomouc.

Candida krusei ATCC 6258 = assay: microbe, parasite or virus in culture; format: cell-based; details: RPMI broth microdilution, 35° C., 48 hours, visual
Description: as §1, §2, §3, §4, §5, §6, §7

Candida glabrata DSY 565 = assay: microbe, parasite or virus in culture; format: cell-based; details: RPMI broth microdilution, 35° C., 48 hours, visual
Description: as §1, §2, §3, §4, §5, §6, §7

[2] = system: Candida albicans ATCC MYA-2876; assay: microbe, parasite or virus in culture; format: cell-based; details: RPMI broth microdilution, 35° C., 48 hours, visual
Description: as §1, §2, §3, §4, §5, §6, §7

[3] = system: Candida tropicalis ATCC 750; assay: microbe, parasite or virus in culture; format: cell-based; details: RPMI broth microdilution, 35° C., 48 hours, visual
Description: as §1, §2, §3, §4, §5, §6, §7

[4] = system: Candida dubliniensis ATCC MYA-646; assay: microbe, parasite or virus in culture; format: cell-based; details: RPMI broth microdilution, 35° C., 48 hours, visual
Description: as §1, §2, §3, §4, §5, §6, §7

[5] = system: Candida albicans (Olomouc); assay: microbe, parasite or virus in culture; format: cell-based; details: RPMI broth microdilution, 35° C., 48 hours, visual
Description: as §1, §2, §3, §4, §5, §6, §7

[6] = system: Pseudomonas aeruginosa 5482; details: 37° C., 20 h
Description: (§8) Gram-positive bacteria (Micrococcus luteus, Bacillus subtilis, Staphylococcus aureus, Staphylococcus epidermidis and Enterococcus faecalis), Gram-negative bacteria (Escherichia coli and Pseudomonas aeruginosa) and the yeast (Candida albicans) were grown to exponential phase and then were diluted with fresh medium. BHI medium (Oxoid, Great Britain) was used for Enterococcus faecalis; YPD medium containing yeast extract peptone and glucose was used for Candida albicans and LB medium (Sigma, Czech Republic) was used for the remaining microorganisms. Then the microorganisms were added to the solutions of the tested antimicrobial peptides in LB medium in multi-well plates. The final peptide concentration it the wells was in the range of 0.1 to 100 μmol.l^−1. That was made by twofold serial dilution from the peptide stock solution (1 mmol.l^−1). The plates were incubated at 37° C. for 20 h while being continuously shaken in a Bioscreen C (Oy Growth Curves AB Ltd., Helsinki, Finland). Absorbance was measured at 540 nm every 15 min. Antimicrobial activity (Table 2) was determined as a quantitative minimum inhibitory concentration (MIC) by observing bacterial growth in the presence of different concentrations of tested peptides. In the experiments ca 10^5 CFU of bacteria or candida per well were routinely used.
(§9) Multiresistant clinical isolates of bacteria were obtained from University Hospital in Motol, Prague, Czech Republic and from Liberec Regional Hospital, Czech Republic. Methicillin resistant Staphylococcus aureus (MRSA) 6271 and Pseudomonas aeruginosa 5482 were from the Czech National Collection of Type Cultures, the National Institute of Public Health, Prague, Czech Republic. Other bacteria were from the Czech Collection of Microorganisms, Brno, Czech Republic. Candida albicans came from the Faculty of Medicine, Palacky University, Olomouc, Czech Republic.

Bacillus subtilis = details: Bacillus subtilis; 37° C., 20 h
Description: as §8, §9

Micrococcus luteus = details: Micrococcus luteus; 37° C., 20 h
Description: as §8, §9

[7] = system: Staphylococcus aureus Liberec; details: Staphylococcus aureus Liberec clinical isolate; 37° C., 20 h
Description: as §8, §9

[8] = system: Methicillin resistant Staphylococcus aureus (MRSA) 6271; details: 37° C., 20 h
Description: as §8, §9

[9] = system: Pseudomonas aeruginosa Liberec; details: Pseudomonas aeruginosa Liberec; 37° C., 20 h
Description: as §8, §9

Escherichia coli = details: 37° C., 20 h
Description: as §8, §9

[10] = system: Staphylococcus aureus Motol; details: Staphylococcus aureus Motol clinical isolate; 37° C., 20 h
Description: as §8, §9

Candida albicans Olomouc = details: Candida albicans Olomouc; YPD medium; 37° C., 20 h (Example 2)
Description: as §8, §9

[11] = system: Enterococcus faecalis Motol; details: BHI medium, 37° C., 20 h
Description: as §8, §9

[12] = system: Staphylococcus epidermidis Motol; details: 37° C., 20 h
Description: as §8, §9

S. aureus (Liberec) = assay: Synergistic effect of peptides with antibiotics, FIC index; format: cell-based, Staphylococcus aureus; details: peptide combined with amoxicillin; FIC <0.5 synergism, 0.5-2 additive, >2 antagonism; averages of three experiments
Description: (§10) MICs values of various combinations of two fold serial dilutions of peptides and antibiotics were determined using the same methodology as in the case of antimicrobial activity determination (Example 2). To consider the type of the final effect, FIC indexes (fractional inhibitory concentration) were used and calculated as follows:
(§11) [formula] where MICPC and MICAC are the MICs of the peptide and antibiotic in combination, respectively, and MICP and MICA are the MICs of the peptide and antibiotic tested alone, respectively. FIC<0.5 were considered as synergy, 0.5≤FIC≤2 as addition effect, and FIC>2 as antagonism.

P. aeruginosa (Liberec) = assay: as above; format: cell-based, Pseudomonas aeruginosa; details: FIC <0.5 synergism, 0.5-2 additive, >2 antagonism, averages of three experiments; for FIC indexes (fractional inhibitory concentration) Combination with RIF against P. aeruginosa: peptide combined with rifampicin; for FIC indexes (fractional inhibitory concentration) Combination with TET against P. aeruginosa: peptide combined with tetracycline
Description: as §10, §11

in vitro = details: human
Summary of the method: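 Peptides at 2-200 μmol.l^−1 incubated 1 h at 37 °C with 5% v/v human erythrocyte suspension in physiological solution. Released haemoglobin in supernatant read at 540 nm against buffer (0%) and 0.2% Triton X100 (100%) lysis controls. LC50 is the peptide concentration lysing 50% of cells.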

Substance	Antifungal activity MIC C. glabrata ATCC 2001 [1]	Antifungal activity MIC C. krusei ATCC 6258 (Candida krusei ATCC 6258)	Antifungal activity MIC C. glabrata DSY 565 (Candida glabrata DSY 565)	Antifungal activity MIC C. albicans ATCC MYA-2876 [2]	Antifungal activity MIC C. tropicalis ATCC 750 [3]	Antifungal activity MIC C. dubliniensis ATCC MYA-646 [4]	Antifungal activity MIC C. albicans Olomouc [5]	Antimicrobial activity MIC P. a. 5482 [6]	Antimicrobial activity MIC B. s. (Bacillus subtilis)	Antimicrobial activity MIC M. l. (Micrococcus luteus)	Antimicrobial activity MIC S. a. Liberec [7]	Antimicrobial activity MIC S. a. 6271 [8]	Antimicrobial activity MIC P. a. Liberec [9]	Antimicrobial activity MIC E. c. (Escherichia coli)	Antimicrobial activity MIC S. a. Motol [10]	Antimicrobial activity MIC C. a. Olomouc (Candida albicans Olomouc)	Antimicrobial activity MIC E. f. Motol [11]	Antimicrobial activity MIC S. e. Motol [12]	FIC indexes (fractional inhibitory concentration) Combination with RIF against P. aeruginosa (P. aeruginosa (Liberec))	FIC indexes (fractional inhibitory concentration) Combination with TET against P. aeruginosa (P. aeruginosa (Liberec))	other results
H-GILKSLLKKLKKIIAK-NH2 [X]	34.0 µM	5.0 µM	71.1 µM	17.0 µM	1.0 µM	14.0 µM	10.5 µM	5.0 µM	1.5 µM	1.4 µM	4.3 µM	16.5 µM	8.9 µM	10.0 µM	10.0 µM	24.0 µM	76.7 µM	2.2 µM	0.333	0.521	FIC indexes (fractional inhibitory concentration) Combination with AMX against S. aureus (S. aureus (Liberec)): 0.542; HC50 at 1 h (in vitro): > 400 µM
H-GILSKLLKKLKKIIAK-NH2 [XI]	26.0 µM	5.0 µM	40.0 µM	20.0 µM	1.0 µM	10.5 µM	12.0 µM	4.5 µM	1.4 µM	1.6 µM	5.9 µM	22.7 µM	8.5 µM	17.5 µM	10.0 µM	45.3 µM	72.7 µM	1.8 µM	0.344	0.646	FIC indexes (fractional inhibitory concentration) Combination with AMX against S. aureus (S. aureus (Liberec)): 0.333; HC50 at 1 h (in vitro): > 400 µM
H-GILSSLLKKWKKIIAK-NH2 [XVI]	40.0 µM	10.0 µM	231.1 µM	26.0 µM	1.0 µM	40.0 µM	18.0 µM	5.0 µM	1.6 µM	2.0 µM	8.8 µM	20.0 µM	7.1 µM	7.5 µM	20.3 µM	10.5 µM	100.0 µM	2.7 µM	0.417	0.583	HC50 at 1 h (in vitro): > 400 µM
H-GILSSWLKKLKKIIAK-NH2 [XV]	40.0 µM	8.0 µM	88.9 µM	17.0 µM	1.2 µM	22.0 µM	21.0 µM	4.0 µM	1.6 µM	1.6 µM	6.6 µM	16.0 µM	5.9 µM	11.0 µM	16.2 µM	16.7 µM	73.3 µM	2.0 µM	0.396	0.646	FIC indexes (fractional inhibitory concentration) Combination with AMX against S. aureus (S. aureus (Liberec)): 0.375; HC50 at 1 h (in vitro): > 400 µM

From patent US10160785B2, “Antimicrobial peptides and their use for the treatment of topical infections” (priority 2015, dated 2018)
